The record followed here is patent US20040152766A1, “Composition comprising demethylcantharidin in combination with platinum-containing anticancer agents and use thereof” (priority 2003, published 2004).

Test [1] relates to SK-Hep-1 human liver cancer. As to the kind of experiment: In vitro antitumor-drug screening, MTT assay, SK-Hep-1. It counts as cell-based. As to the method:
(§1) Test complexes 1-5, DMC, hydrolyzed DMC, cantharidin, together with controls cisplatin and carboplatin, were screened for in vitro antitumor activity against a series of human cancer cell lines and mouse leukaemia L1210, using a tetrazolium microculture assay.
(§2) Drugs: Drugs to be tested were dissolved in complete medium at twice the highest concentration to be used, followed by filter (0.22 μm) sterilization. A series of log dilutions were made of each drug solution using complete medium. All drug solutions were prepared within 10 minutes before adding to the cells.
(§3) Cells: MDA-MB-231 (human breast), SK-OV-3 (human ovarian), SK-Hep-1 (human liver), COLO320DM (human colon), L1210 (mouse leukaemia), NCI:H460 (human lung) and NTERA-Scl-D1 (human testicular) were obtained from the American Type Culture Collection (ATCC).
(§4) The cultures were incubated for an additional 72 hours.
(§5) Data analysis: The mean OD for all 12 control wells was determined. For each concentration of each drug, the mean OD of the 4 wells was determined. All mean OD was subtracted from the blank to account for the background. The “Percent of Control” values were determined and plotted. The concentration of drug resulting in 50% growth inhibition (IC50) was determined using the software Prism 3.0 by fitting the graph into sigmoidal dose-response curve.

In another test the test system is L1210 mouse leukaemia. As to the kind of experiment: In vitro antitumor-drug screening, tetrazolium (MTT) microculture assay, L1210. It counts as cell-based. The procedure:
as §1, §2, §3, §4, §5

For test [2], the system named is COLO320DM human colon cancer. As to the kind of experiment: In vitro antitumor-drug screening, MTT assay, COLO320DM. It counts as cell-based. The procedure: as §1, §2, §3, §4, §5
Test [3] deals with MDA-MB-231 human breast cancer. As to the kind of experiment: In vitro antitumor-drug screening, MTT assay, MDA-MB-231. It is filed as cell-based. As to the method: as §1, §2, §3, §4, §5
Test [4] relates to SK-OV-3 human ovarian cancer. Nature of the test: In vitro antitumor-drug screening, MTT assay, SK-OV-3. It counts as cell-based. The procedure: as §1, §2, §3, §4, §5
For test [5], the system named is NTERA-S cl D1 human testicular cancer. Nature of the test: In vitro antitumor-drug screening, MTT assay, NTERA-S cl D1. It counts as cell-based. As to conditions: n = 12-16 from 3-4 independent experiments, read-out: Growth-inhibitory activity IC50 ± sd. As to the method: as §1, §2, §3, §4, §5
Test [6] deals with NCI: H460 human lung cancer. As to the kind of experiment: In vitro antitumor-drug screening, MTT assay, NCI:H460. It counts as cell-based. The note with it: n = 12-16 from 3-4 independent experiments, read-out: Growth-inhibitory activity IC50 ± sd. The procedure: as §1, §2, §3, §4, §5
Test [7] deals with Sensitive parental L1210 mouse leukaemia. As to the kind of experiment: cells. The note with it: 72-hr exposure, fa = 50%. It is filed as cell-based.
Description: (§6) In vitro drug exposure: Trypsinized cells were adjusted to a concentration of 2×10^5 cells/ml in complete medium and for each drug to be tested, 0.1 ml of the cell suspension was added to each of the 24 wells of a 96-well microtitre plate. The plate was then incubated at standard conditions for 24 hours in order to allow the cells to attach to the bottom of the well and resume exponential growth. To each well of the control cultures and drug/concentration combination, 0.1 ml of complete medium and drug solution respectively was added. Each drug/concentration combination consisted of 4 replicates while control cultures consisted of 12 replicates. 12 replicates of blank consisting of 0.2 ml complete medium were set aside to account for the background. The cultures were incubated for an additional 72 hours. All experiments were repeated at least 3 times on different occasions.
(§7) MTT assay: The MTT (tetrazolium) assay was used to determine the growth-inhibitory effects of different drugs. A 5 mg/ml solution of MTT (3-(4,5-dimethylthiazol-2-yl)-2,5-diphenyltetrazolium bromide) was prepared in phosphate buffer saline (pH 7.4), filter (0.22 μm) sterilized and stored at −20° C. To each well, 0.02 ml of the MTT solution was added and the plates were incubated at standard conditions for 4 hours. The media from each well was then removed and 0.1 ml of DMSO (dimethylsulfoxide) was added to each well to solubilize the colored dye produced from the metabolic reduction of MTT. The amount of reduced MTT was determined by spectrophotometric means (570 nm).
(§8) Platinum compounds were evaluated alone and in combination with demethylcantharidin (DMC) for their cytotoxic effects. The cytotoxicity for the compounds was determined by the MTT assay as described above. The median-effect principle and combination-index isobologram method of Chou and Talalay was used to determine the dose-effect parameters for cisplatin, DMC, or their mixtures at different combination ratios. Each drug or mixture was 3-fold serially diluted to generate a dose-effect relationship in the cytotoxic assays.
(§9) Combinations of cisplatin and DMC were evaluated for synergism, additive effect or antagonism using the median-effect plot and combination-index isobologram method of Chou and Talalay references 1-4.
This method involves plotting dose-effect curves for each agent and their combinations in multiply-diluted concentrations by using the median-effect equation [3,6] […]
CI<1, CI=1, and CI>1 indicate synergism, additivity, and antagonism, respectively. As based on the classic isobologram equation, CI can be calculated by equation: […]
Both the mutually non-exclusive and exclusive drug interaction as defined by Chou and Chou (reference 7) were evaluated. […]
The subject of test [8] is Cisplatin-resistant L1210 mouse leukaemia. The note with it: for fold-resistant (cross-resistance): Dm in CDDP-resistant L1210 versus sensitive L1210.
Description: as §6, §7, §8, §9
This method involves plotting dose-effect curves for each agent and their combinations in multiply-diluted concentrations by using the median-effect equation [3,6]
where fa is the fraction of cells affected (ie, fraction of cells killed), fu the fraction unaffected (i.e. fraction of cells surviving; fa=1−fu), D the dose of drug and Dm the dose causing the median effect
The parameters m, Dm, and r are the slope, antilog of x-intercept, and the linear correlation coefficient of the median-effect plot, which signifies the shape of the dose-effect curve, the potency (IC50), and conformity of the data to the mass-action law, in references 3, 5 and 6, respectively. Dm and m values are used for calculating the combination index (CI) values.
CI<1, CI=1, and CI>1 indicate synergism, additivity, and antagonism, respectively. As based on the classic isobologram equation, CI can be calculated by equation:
CI=[(D)1/(Dx)1]+[(D)2/(Dx)2]+[α(D)1(D)2]/[(Dx)1(Dx)2),
Both the mutually non-exclusive and exclusive drug interaction as defined by Chou and Chou (reference 7) were evaluated.
To preclude a false-positive result, classical isobologram curve tracing was used to confirm the synergistic effect at a reasonable fractional cytotoxic effect (fa=50%).
The mark [9] stands for this setting: SK-Hep-1 human liver cancer, n = 12-16 from 3-4 independent experiments, read-out: Growth-inhibitory activity IC50 ± sd.
Where [10] appears, read: L1210 mouse leukaemia, n = 12-16 from 3-4 independent experiments, read-out: Growth-inhibitory activity IC50 ± sd.
Where [11] appears, read: COLO320-DM human colon cancer, n = 12-16 from 3-4 independent experiments, read-out: Growth-inhibitory activity IC50 ± sd.
Setting [12] is: MDA-MB-231 human breast cancer, n = 12-16 from 3-4 independent experiments, read-out: Growth-inhibitory activity IC50 ± sd.
Where [13] appears, read: SK-OV-3 human ovarian cancer, n = 12-16 from 3-4 independent experiments, read-out: Growth-inhibitory activity IC50 ± sd.
Where [14] appears, read: sensitive parental L1210, read-out: Dm (i.e. IC50), antilog of x-intercept of the median-effect plot.
Setting [15] is: Homo sapiens, SK-HEP1, SK-Hep-1, Table 1, read-out: In vitro antitumor activity IC50.
The mark [16] stands for this setting: Mus musculus, L1210, Table 1, read-out: In vitro antitumor activity IC50.
Where [17] appears, read: Homo sapiens, COLO 320DM, COLO320DM, Table 1, read-out: In vitro antitumor activity IC50.
Setting [18] is: Homo sapiens, MDA-MB-231, Table 1, read-out: In vitro antitumor activity IC50.
The mark [19] stands for this setting: Homo sapiens, SK-OV-3, Table 1, read-out: In vitro antitumor activity IC50.

Where “and” joins values, the source holds several entries; their conditions need not be identical. Identical values can stand only once. Like-named read-outs stand apart in the source and are kept apart here.

On to `O=C(O)C1C2CCC(O2)C1C(=O)O` (stereo not drawn) [Hydrolyzed DMC], for which the IC50 in test [1] (SK-Hep-1, Table 1, read-out: In vitro antitumor activity IC50) was 7.2 µM; with L1210 mouse leukaemia (L1210, Table 1, read-out: In vitro antitumor activity IC50), 8.33 µM; in test [2] (COLO320DM, Table 1, read-out: In vitro antitumor activity IC50), 46.5 µM; in test [3] (MDA-MB-231, Table 1, read-out: In vitro antitumor activity IC50), 41.7 µM; in test [4] (SK-OV-3, Table 1, read-out: In vitro antitumor activity IC50) it was 46.6 µM.

`CC[NH][Pt]1([NH]CC)[O]C(=O)C2C3CCC(O3)C2C(=O)[O]1` (stereo not drawn) [Complex 4]: the IC50 in test [1] (setting [9]) came to 20 ± 5.52 µM; in the test with L1210 mouse leukaemia (setting [10]), 5.92 ± 1.94 µM; in test [2] (setting [11]) it was 48.5 ± 9.95 µM; in [3] (setting [12]), 62.5 ± 13.3 µM; in [4] (setting [13]), 62.6 ± 33.5 µM; in test [5] it was 600 ± 240 nM. Further, the IC50 in test [6] stood at 3.91 ± 2.65 µM.

On to `[NH2][Pt]1([NH2])[O]C(=O)C2C3CCC(O3)C2C(=O)[O]1` (stereo not drawn) [Complex 1], for which the IC50 is 20.6 ± 5.89 µM in [1] (setting [9]); 2.71 ± 0.4 µM in the test on L1210 mouse leukaemia (setting [10]); 37.2 ± 7.14 µM in [2] (setting [11]); 63.8 ± 8.28 µM in test [3] (setting [12]); 5.15 µM in test [7] (setting [14]); 42.4 µM in test [8]. Besides, the IC50 in test [4] (setting [13]) amounted to 40.8 ± 14.3 µM; in test [5], 360 ± 250 nM; in test [6], 21.1 ± 10.7 µM. The “fold-resistant (cross-resistance)” value in [8] was 8 fold and 8.2 fold; in test [8] (listed as complex 1), “different degree of cross-resistant”.

As for `N.N.O=C([O-])C1(C(=O)[O-])CCC1.[Pt+2]` [Carboplatin, reference compound], the IC50 in [1] (setting [9]) was 501 ± 86.6 µM; in the test on L1210 mouse leukaemia (setting [10]), 10.1 ± 3.71 µM; in test [2] (setting [11]) it was 188 ± 35.8 µM; in test [3] (setting [12]) it was 1080 ± 157 µM; in test [7] (setting [14]) it was 10.6 µM; in test [8], 154 µM. Besides, the results for the IC50 in test [4] (setting [13]), in test [5] and in test [6] were 149 ± 34.1 µM, 2750 ± 1130 nM and 60.3 ± 16.4 µM, respectively. Also, the “fold-resistant (cross-resistance)” value is 14.5 fold in test [8] and roughly 15 fold in test [8] (listed as carboplatin).

Regarding `N.N.[Cl][Pt][Cl]` [Cisplatin, reference compound], the 50% inhibitory concentration (IC50) in test [1] (setting [9]) was determined as 54.1 ± 9.81 µM; with L1210 mouse leukaemia (setting [10]) it was 0.51 ± 0.11 µM; in [2] (setting [11]), 11.9 ± 1.5 µM; in test [3] (setting [12]), 65.7 ± 4.39 µM; in [7] (setting [14]) it was 0.603 µM; in [8] it was 24.6 µM. Also, the 50% inhibitory concentration (IC50) was 15.2 ± 11.8 µM in [4] (setting [13]), 190 ± 100 nM in test [5] and 11.3 ± 4.93 µM in [6]. In addition, the “DRI for cisplatin, resistant versus sensitive parental cell line” value in [8] (Cisplatin:DMC 1:1.67 (resistant) versus 1:1.49 (sensitive)) is “about 5.5 fold”. Moreover, the “fold-resistant (cross-resistance)” value came to 40.8 fold in test [8] and 40 fold in test [8] (listed as cisplatin).

Consider `O=C1[O][Pt]2([NH][C@@H]3CCCC[C@H]3[NH]2)[O]C1=O` [Oxaliplatin], for which the “fold-resistant (cross-resistance)” value in test [8] is on record as “different degree of cross-resistant”.

For the compound `O=C1OC(=O)C2C3CCC(O3)C12` (stereo not drawn) [DMC, Demethylcantharidin], the 50% inhibitory concentration (IC50) in [1] (setting [15]) is 11.5 µM; in the test on L1210 mouse leukaemia (setting [16]) it was 13.9 µM; in test [2] (setting [17]) it was 19.3 µM; in test [3] (setting [18]), 31.8 µM; in test [7] (Mus musculus, L1210, 72 h, read-out: Dm (i.e. IC50), antilog of x-intercept of the median-effect plot, sensitive parental L1210), 11.2 µM; in test [4] (setting [19]) it was 53.8 µM. Moreover, the “fold-resistant (cross-resistance)” value in test [8] was 1.1 fold; in test [8] (listed as demethylcantharidin (DMC)) it was “negligible cross-resistance”.

As to `C[C@@]12C(=O)OC(=O)[C@]1(C)[C@H]1CC[C@@H]2O1` [Cantharidin], the IC50 was 3.34 µM in [1] (setting [15]); 38.9 µM with L1210 mouse leukaemia (setting [16]); 35.6 µM in test [2] (setting [17]); 10.6 µM in [3] (setting [18]); 4.98 µM in test [4] (setting [19]).

Take `C[NH][Pt]1([NH]C)[O]C(=O)C2C3CCC(O3)C2C(=O)[O]1` (stereo not drawn) [Complex 3]: the 50% inhibitory concentration (IC50) in test [1] (setting [9]) is 15.4 ± 6.04 µM; in the test with L1210 mouse leukaemia (setting [10]) it was 6.19 ± 2.67 µM; in test [2] (setting [11]), 48.9 ± 10.5 µM; in [3] (setting [12]), 49.4 ± 9.42 µM; in test [4] (setting [13]) it was 37.2 ± 13.4 µM; in test [5], 840 ± 200 nM. Further, the IC50 in [6] worked out at 3.44 ± 1.98 µM.

On to `O=C1[O][Pt]2([NH]C3CCCCC3[NH]2)[O]C(=O)C2C3CCC(O3)C12` (stereo not drawn) [Complex 5], for which, in [8], the “fold-resistant (cross-resistance)” value was “negligible cross-resistance”.

For `CC(C)[NH][Pt]1([NH]C(C)C)[O]C(=O)C2C3CCC(O3)C2C(=O)[O]1` (stereo not drawn) [Complex 2], the IC50 in [1] (setting [9]) stood at 17.2 ± 8.07 µM; with L1210 mouse leukaemia (setting [10]) it was 12.1 ± 2.35 µM; in test [2] (setting [11]), 84.7 ± 9.68 µM; in [3] (setting [12]) it was 94.5 ± 9.61 µM; in test [4] (setting [13]), 77.7 ± 19.8 µM; in test [5], 1440 ± 410 nM. In addition, the IC50 in [6] was determined as 26.5 ± 8.09 µM.
